For 3 compounds, AC50, IC50 and EC50 results are on record in ChEMBL document CHEMBL1201862, “PubChem BioAssay data set” (2004).

Activity calls are given as the source filed them.

Experiment [1] concerns the target Histone-lysine N-methyltransferase NSD2 (Homo sapiens, UniProt O96028). It counts as biochemical.
The next experiment has as its system H9c2. The experiment can be described thus: cells. Format: functional, cell-based. Particulars: Rattus norvegicus, H9c2, Myocardium.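 Also: confirmatory concentration-response retest of ultra-high-throughput screening hits for modulation of myocardial damage; cell death induced by hydrogen peroxide oxidative stress; compound pretreatment for 60 min then peroxide exposure for 2 h; potency is for protecting the cells against peroxide damage rather than for killing them.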
The target in experiment [2] is T1, Heat shock factor protein 1 (Mus musculus, UniProt P38532).
T1 sequence (P38532 whole entry): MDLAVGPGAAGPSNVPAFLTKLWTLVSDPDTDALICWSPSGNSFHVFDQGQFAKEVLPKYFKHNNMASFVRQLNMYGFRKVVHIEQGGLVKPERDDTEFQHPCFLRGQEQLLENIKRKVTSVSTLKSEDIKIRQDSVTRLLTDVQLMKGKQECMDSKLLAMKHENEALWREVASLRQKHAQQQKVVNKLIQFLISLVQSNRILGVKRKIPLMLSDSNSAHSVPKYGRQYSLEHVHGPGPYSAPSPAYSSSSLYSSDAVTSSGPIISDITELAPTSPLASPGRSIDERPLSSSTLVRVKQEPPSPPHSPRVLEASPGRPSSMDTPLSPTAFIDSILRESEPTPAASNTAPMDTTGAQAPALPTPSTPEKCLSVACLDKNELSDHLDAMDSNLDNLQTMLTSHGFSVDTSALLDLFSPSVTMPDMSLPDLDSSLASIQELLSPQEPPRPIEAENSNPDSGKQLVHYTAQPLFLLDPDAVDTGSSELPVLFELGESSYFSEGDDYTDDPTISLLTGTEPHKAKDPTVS
The experiment can be described thus: enhancement of HSF1-driven luciferase signal – cell-based, NIH3T3, luminescence, dose retest, confirmation (AID 435004).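 Also: stress induced by proteasome inhibitor MG132 added 30 min after compound; luciferase reporter driven by HSF1 response element in NIH3T3 cells; actives raise luminescence as potentiators of the MG132 stress response.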 It counts as functional.

In experiment [3] the target is T2, Trace amine-associated receptor 1 (Homo sapiens, UniProt Q96RJ0).
T2 sequence (Q96RJ0 whole entry): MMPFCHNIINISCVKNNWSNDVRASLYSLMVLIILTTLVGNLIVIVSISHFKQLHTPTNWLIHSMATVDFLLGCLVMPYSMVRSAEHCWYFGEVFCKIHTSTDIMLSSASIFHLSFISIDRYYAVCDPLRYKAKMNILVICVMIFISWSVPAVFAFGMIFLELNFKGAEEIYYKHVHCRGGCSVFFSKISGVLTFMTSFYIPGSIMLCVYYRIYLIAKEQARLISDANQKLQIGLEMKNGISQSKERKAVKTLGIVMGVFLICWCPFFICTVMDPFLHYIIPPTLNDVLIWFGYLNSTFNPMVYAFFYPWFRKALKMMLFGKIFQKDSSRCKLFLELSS
The experiment in a line: Fluorescence-based cell-based high throughput dose response assay to identify agonists of the human trace amine associated receptor 1 (TAAR1). Format: functional.

Experiment [4] can be described thus: cells. It counts as functional, cell-based.
Experiment [5] can be described thus: cells. It counts as functional, cell-based. The source holds these as a separate data set.
For experiment [6], the target named is T2, Trace amine-associated receptor 1. The experiment in a line: Counterscreen for agonists of the human trace amine associated receptor 1 (hTAAR1): Fluorescence-based cell-based high throughput dose response assay to identify hTAAR1 agonist that also desensitize TAAR1 receptor response. Format: functional.
The target of experiment [7] is Potassium channel subfamily K member 9 (Homo sapiens, UniProt Q9NPC2). The experiment can be described thus: KCNK9 flux blockade, concentration-response – cell-based, FluxOR thallium flux, selectivity assay for TASK1 inhibitor project, SAR follow-up (AID 652211).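 Also: potency is for inhibitors of the channel.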 Format: functional.
Chain of Potassium channel subfamily K member 9 (Q9NPC2 whole entry): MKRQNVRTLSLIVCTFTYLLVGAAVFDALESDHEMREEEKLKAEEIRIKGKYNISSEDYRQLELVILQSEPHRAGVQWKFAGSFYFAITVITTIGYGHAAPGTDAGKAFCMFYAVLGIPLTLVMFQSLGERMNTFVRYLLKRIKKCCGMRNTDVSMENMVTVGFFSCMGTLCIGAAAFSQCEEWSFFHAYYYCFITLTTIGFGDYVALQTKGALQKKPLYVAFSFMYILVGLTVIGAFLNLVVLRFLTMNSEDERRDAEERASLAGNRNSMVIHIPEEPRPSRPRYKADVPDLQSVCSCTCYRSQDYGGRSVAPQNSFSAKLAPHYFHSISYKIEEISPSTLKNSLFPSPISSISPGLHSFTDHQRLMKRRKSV

Chain of Histone-lysine N-methyltransferase NSD2 (O96028 whole entry): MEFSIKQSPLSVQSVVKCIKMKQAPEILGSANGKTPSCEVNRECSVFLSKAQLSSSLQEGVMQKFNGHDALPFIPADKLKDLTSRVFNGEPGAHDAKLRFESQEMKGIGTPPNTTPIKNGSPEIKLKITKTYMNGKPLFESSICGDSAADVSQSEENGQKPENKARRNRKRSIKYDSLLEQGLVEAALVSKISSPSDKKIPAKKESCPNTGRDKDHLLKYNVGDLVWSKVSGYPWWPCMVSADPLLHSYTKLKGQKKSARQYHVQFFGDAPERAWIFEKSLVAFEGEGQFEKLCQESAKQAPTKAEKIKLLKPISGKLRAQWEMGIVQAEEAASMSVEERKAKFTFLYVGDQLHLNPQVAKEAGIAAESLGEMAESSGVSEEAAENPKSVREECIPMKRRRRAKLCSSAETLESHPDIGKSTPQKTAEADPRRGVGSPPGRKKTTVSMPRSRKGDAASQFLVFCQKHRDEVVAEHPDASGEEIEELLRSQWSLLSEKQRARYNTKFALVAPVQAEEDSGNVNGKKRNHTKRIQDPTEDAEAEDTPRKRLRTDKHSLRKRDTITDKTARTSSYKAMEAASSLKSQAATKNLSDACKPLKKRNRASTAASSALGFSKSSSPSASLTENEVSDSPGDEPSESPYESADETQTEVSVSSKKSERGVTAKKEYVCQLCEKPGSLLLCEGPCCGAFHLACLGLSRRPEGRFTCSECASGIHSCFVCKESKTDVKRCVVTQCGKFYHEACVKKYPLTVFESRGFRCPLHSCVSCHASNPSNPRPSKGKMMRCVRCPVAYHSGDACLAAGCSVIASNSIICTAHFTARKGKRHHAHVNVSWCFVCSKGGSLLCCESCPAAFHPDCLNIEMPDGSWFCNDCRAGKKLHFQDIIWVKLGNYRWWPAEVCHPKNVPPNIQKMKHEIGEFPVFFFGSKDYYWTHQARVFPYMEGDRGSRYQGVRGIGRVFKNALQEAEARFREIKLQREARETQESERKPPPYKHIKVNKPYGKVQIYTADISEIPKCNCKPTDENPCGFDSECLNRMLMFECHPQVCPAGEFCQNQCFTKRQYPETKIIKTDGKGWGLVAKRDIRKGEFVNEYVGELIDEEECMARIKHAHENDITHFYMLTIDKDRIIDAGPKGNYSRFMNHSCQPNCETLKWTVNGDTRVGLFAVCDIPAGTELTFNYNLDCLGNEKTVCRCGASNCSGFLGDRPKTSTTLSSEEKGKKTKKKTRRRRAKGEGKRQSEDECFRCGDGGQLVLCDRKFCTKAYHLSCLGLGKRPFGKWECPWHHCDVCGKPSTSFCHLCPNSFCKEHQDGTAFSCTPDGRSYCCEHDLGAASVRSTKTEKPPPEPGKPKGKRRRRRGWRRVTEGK

As to `O=C(CN1CCN(S(=O)(=O)c2ccc(Br)cc2)CC1)c1ccc(O)c(O)c1`, the AC50 in experiment [1] is 8.3 µM (active). The IC50 with H9c2 is > 79 µM (inactive).

Turning to `c1ccc2c3c([nH]c2c1)CCNC3`, the EC50 in experiment [2] is > 260 µM (inactive); in experiment [3], 0.412 µM (active); in “cells [4]”, > 29.9 µM (inactive). For the same compound, the IC50 in “cells [5]” is > 29.9 µM (inactive); in experiment [6], 1.77 µM (active).

As to `Cc1cccc(C(=O)Nc2cccc(NC(=O)c3cccc(C)c3)c2)c1`, the IC50 in experiment [7] is 0.99 µM (active).
